Patent US11198694B2, “HDAC6 inhibitors, with improved solubility and their uses” (UNIVERSITÄT REGENSBURG, priority 2017, dated 2021)

Key:
human HDAC6 = molecular target: T1, human HDAC6 (Homo sapiens, UniProt Q9UBN7); assay: Fluorescence HDAC enzyme inhibition assay (Reaction Biology Corporation); format: biochemical
T1 construct: purchased Reaction Biology Corporation HDAC6
T1 sequence (Q9UBN7 1-1215): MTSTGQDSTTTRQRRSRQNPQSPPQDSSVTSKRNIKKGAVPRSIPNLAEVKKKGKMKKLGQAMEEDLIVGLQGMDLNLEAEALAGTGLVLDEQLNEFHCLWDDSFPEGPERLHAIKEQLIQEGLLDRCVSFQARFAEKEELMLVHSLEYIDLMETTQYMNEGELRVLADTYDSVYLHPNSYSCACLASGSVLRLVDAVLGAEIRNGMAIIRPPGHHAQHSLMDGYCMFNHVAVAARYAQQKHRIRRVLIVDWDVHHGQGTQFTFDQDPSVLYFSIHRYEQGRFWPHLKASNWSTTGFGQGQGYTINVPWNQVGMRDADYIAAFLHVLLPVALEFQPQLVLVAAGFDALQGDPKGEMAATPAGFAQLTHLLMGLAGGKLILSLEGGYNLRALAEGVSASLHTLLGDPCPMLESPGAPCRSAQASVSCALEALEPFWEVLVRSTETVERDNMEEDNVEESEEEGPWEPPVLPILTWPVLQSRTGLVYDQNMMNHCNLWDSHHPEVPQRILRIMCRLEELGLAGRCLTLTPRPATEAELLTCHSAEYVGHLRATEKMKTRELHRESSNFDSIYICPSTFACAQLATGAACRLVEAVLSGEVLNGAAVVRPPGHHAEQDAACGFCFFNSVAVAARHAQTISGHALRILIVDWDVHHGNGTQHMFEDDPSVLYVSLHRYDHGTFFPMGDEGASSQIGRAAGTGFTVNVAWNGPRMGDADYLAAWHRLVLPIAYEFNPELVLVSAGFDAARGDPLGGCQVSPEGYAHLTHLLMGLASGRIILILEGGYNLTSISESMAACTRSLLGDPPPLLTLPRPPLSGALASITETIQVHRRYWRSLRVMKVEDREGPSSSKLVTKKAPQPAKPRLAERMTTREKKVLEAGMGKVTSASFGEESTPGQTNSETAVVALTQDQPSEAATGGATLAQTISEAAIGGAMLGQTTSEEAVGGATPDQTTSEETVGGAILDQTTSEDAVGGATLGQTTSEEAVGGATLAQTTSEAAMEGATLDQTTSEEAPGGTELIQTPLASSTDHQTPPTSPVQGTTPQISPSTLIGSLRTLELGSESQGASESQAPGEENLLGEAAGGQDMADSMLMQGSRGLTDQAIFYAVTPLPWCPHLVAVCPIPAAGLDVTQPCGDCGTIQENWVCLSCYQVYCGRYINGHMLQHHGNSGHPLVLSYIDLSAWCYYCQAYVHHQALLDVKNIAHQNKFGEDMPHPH
Method: (§1) The IC50 values for the various inhibitors against the isoenzymes of HDAC were measured by Reaction Biology Corporation (Malvern, Pa., USA) (Buffer, Kalin et al. 2010): For the enzyme inhibition assay, human recombinant protein material was used (human HDAC2 (CAT #: HDAC2), human HDAC6 (CAT #: HDAC6) or human HDAC8 (CAT #: HDAC8)). A 10-point dose response curve was prepared using a 3-fold dilution series (1:3), started at a concentration of 1 μM in DMSO for the synthesized drugs and 10 μM in DMSO for the reference substance Trichostatin A231 (TSA, for HDAC 2, 6 and 8). Reaction time was 90 minutes at 37° C. in a volume of 50 μL in a 96 well plate. Reaction buffer: 50 mM Tris-HCl, pH=8.0, 137 mM NaCl, 2.7 mM KCl, and 1 mM MgCl2 freshly added: 1 mg/ml bovine serum albumin. The fluorescence was measured using a fluoroscope Ascent™ FL fluorometer. The percent enzyme activity was calculated relative to the DMSO control. IC50 values were calculated using GraphPad Prism (GraphPad Prism 4.0 Software, San Diego, USA) based on a sigmoidal dose-response equation.
(§2) HDAC enzyme inhibition assays were conducted by Reaction Biology Corporation (Malvern, Pa., USA) using a ten point dose response curve with half-log serial dilutions, fluorogenic peptides at 50 μM as enzymatic substrates. Substrate for HDAC 2 and 6: fluorogenic peptide from p53 residues 379-382 (RHKK(Ac)AMC). Substrate for HDAC-8: fluorogenic peptide from p53 residues 379-382 (RHK(Ac)K(Ac)AMC).

human HDAC8 = molecular target: T2, human HDAC8 (Homo sapiens, UniProt Q9BY41); assay: as above; format: biochemical
T2 construct: purchased Reaction Biology Corporation HDAC8
T2 sequence (Q9BY41 1-377): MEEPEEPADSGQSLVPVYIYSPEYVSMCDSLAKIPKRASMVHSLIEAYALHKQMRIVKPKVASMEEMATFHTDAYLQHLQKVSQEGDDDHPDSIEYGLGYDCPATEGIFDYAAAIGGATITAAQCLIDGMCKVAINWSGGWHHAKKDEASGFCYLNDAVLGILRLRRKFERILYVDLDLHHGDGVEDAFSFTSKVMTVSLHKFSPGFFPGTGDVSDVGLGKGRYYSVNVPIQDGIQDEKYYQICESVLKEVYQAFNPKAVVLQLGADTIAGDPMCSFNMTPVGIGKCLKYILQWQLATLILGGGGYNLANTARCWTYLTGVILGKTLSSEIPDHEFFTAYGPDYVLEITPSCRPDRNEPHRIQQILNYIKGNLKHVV
Method: as §1, §2

human HDAC2 = molecular target: T3, human HDAC2 (Homo sapiens, UniProt Q92769); assay: Fluorescence HDAC enzyme inhibition assay (Reaction Biology Corporation); format: biochemical
T3 construct: purchased Reaction Biology Corporation HDAC2
Method: as §1, §2

Solubility in H2O = format: physicochemical; conditions: water

T3 sequence (Q92769 whole entry): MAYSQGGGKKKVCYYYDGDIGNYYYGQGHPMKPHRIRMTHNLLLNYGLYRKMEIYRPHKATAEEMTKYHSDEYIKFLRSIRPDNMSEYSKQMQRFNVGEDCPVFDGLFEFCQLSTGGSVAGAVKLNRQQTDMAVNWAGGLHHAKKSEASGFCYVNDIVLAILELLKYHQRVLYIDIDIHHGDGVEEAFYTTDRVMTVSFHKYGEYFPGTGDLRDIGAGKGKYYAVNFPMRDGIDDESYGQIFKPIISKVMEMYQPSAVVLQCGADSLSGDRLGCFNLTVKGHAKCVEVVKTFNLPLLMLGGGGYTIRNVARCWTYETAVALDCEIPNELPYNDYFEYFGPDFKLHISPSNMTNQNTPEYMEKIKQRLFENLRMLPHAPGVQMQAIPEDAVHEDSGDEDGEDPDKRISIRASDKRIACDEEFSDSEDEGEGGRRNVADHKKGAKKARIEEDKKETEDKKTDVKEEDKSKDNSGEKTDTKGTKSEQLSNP

Structure (SMILES) | IC50 (human HDAC6) | IC50 (human HDAC8) | melting point | IC50 (human HDAC2) | solubility (Solubility in H2O)
CN1CC(=O)N2CCc3c(c4ccccc4n3Cc3ccc(C(=O)NO)cc3)C2C1=O (stereo not drawn) [Compound 31b, N-hydroxy-4-((2-methyl-1,4-dioxo-1,3,4,6,7,12c-hexahydropyrazino[1′,2′:1,2]pyrido[4,3-b]indol-8(2H)-yl)methyl)benzamide] | 16.4 ± 0.75 nM | 251 ± 32.5 nM |  |  | 
CN1C(=O)C2c3c(n(Cc4ccc(C(=O)NO)cc4)c4ccccc34)CCN2C1=O (stereo not drawn) [Compound 31a, N-Hydroxy-4-((2-methyl-1,3-dioxo-2,3,5,6-tetrahydro-1H-imidazo[1′,5′:1,2]pyrido[4,3-b]indol-7(11cH)-yl)methyl)benzamide] | 8.99 ± 1.11 nM |  | 248.1 to 251.7 °C |  | 
CN1C(=O)[C@@H]2CN(Cc3c2c2cc(OCCN4CCOCC4)ccc2n3Cc2ccc(C(=O)NO)cc2)C1=O [(S)-21, N-Hydroxy-4-(((6S)-4-methyl-8-(2-morpholinoethoxy)-3,5-dioxo-3,4,5,6-tetrahydro-2,6-methano[1,3]diazocino[5,6-b]indole-11(1H)-yl)methyl)benzamide] | 3.02 nM | 364 nM |  | 1800 nM | 
CN1C(=O)C2c3c(c4ccccc4n3Cc3ccc(C(=O)NO)cc3)CCN2C1=O (stereo not drawn) [Compound 41, N-Hydroxy-4-((2-methyl-1,3-dioxo-2,3,5,6-tetrahydro-1H-imidazo[1′,5′:1,2]pyrido[3,4-b]indol-11(11bH)-yl)methyl)benzamide] | 30.7 ± 5.8 nM | 83 ± 6 nM |  |  | 
CN1C(=O)C2CN(Cc3c2c2cc(OCCN4CCOCC4)ccc2n3Cc2ccc(C(=O)NO)cc2)C1=O (stereo not drawn) [Compound 21, 4-(2-((11-(4-(Hydroxycarbamoyl)benzyl)-4-methyl-3,5-dioxo-1,3,4,5,6,11-hexahydro-2,6-methano[1,3]diazocino[5,6-b]indol-8-yl)oxy)ethyl)morpholin-4-ium chloride] | 2.41 ± 0.76 nM | 121 ± 10 nM |  |  | 
CN1C(=O)[C@H]2CN(Cc3c2c2cc(OCCN4CCOCC4)ccc2n3Cc2ccc(C(=O)NO)cc2)C1=O [(R)-21, N-Hydroxy-4-(((6R)-4-methyl-8-(2-morpholinoethoxy)-3,5-dioxo-3,4,5,6-tetrahydro-2,6-methano[1,3]diazocino[5,6-b]indole-11(1B)-yl)methyl)benzamide] | 7.05 nM | 1970 nM |  | 13000 nM | 
CN1C(=O)C2CN(Cc3c2c2ccccc2n3Cc2ccc(C(=O)NO)cc2)C1=O (stereo not drawn) |  |  |  |  | < 1000 µg/mL
